Converted amounts (≈) assume the structure as drawn. Like-named read-outs stand apart in the source and are kept apart here.
How the values were obtained:
[1] = test system: Strep. pneumoniae CN33; test: MIC against human bacteria in vitro; type: cell-based; conditions: Streptococcus pneumoniae; Strep. pneumoniae CN33; 5% chocolated horse blood agar, 18 hours; read-out: MIC
[2] = test system: M. suipneumoniae LABER; test: MIC against mycoplasma in vitro; type: cell-based; conditions: Mesomycoplasma hyopneumoniae, 144 h; M. suipneumoniae LABER; 6 days, 37° C.; read-out: MIC
[3] = test system: M. gallisepticum S6; test: MIC against mycoplasma in vitro; type: cell-based; conditions: Mycoplasmoides gallisepticum
[4] = test system: Staph. aureus Oxford; test: MIC against veterinary bacteria in vitro; conditions: Staphylococcus aureus, 18 h
Procedure: (§1) The activity of the compounds of the Examples against various veterinarily important bacteria, was assayed in vitro using two-fold serial dilutions in Diagnostic Sensitivity Test Agar inoculated with 10^4 organisms.

[5] = test system: M. suipneumoniae NCTC 10110; test: MIC against mycoplasma in vitro; type: cell-based; conditions: Mesomycoplasma hyopneumoniae, NCTC10110, 144 h; M. suipneumoniae NCTC 10110; 6 days, 37° C.; read-out: MIC
[6] = test system: M. bovis NCTC 10131; test: microbe, parasite or virus in culture; type: cell-based; conditions: NCTC10131, 144 h
[7] = test system: Strep. dysgalactiae SPD1; test: MIC against veterinary bacteria in vitro; conditions: Streptococcus dysgalactiae, SPD1, 18 h
Procedure: as §1

[8] = test system: E. coli NCTC 10418; test: MIC against human bacteria in vitro; type: cell-based; conditions: Escherichia coli
[9] = test system: Past. multocida PA2; test: MIC against veterinary bacteria in vitro; conditions: Pasteurella multocida, PA2, 18 h
Procedure: as §1

[10] = test system: E. coli NCTC 10418; test: MIC against veterinary bacteria in vitro; conditions: Escherichia coli, NCTC10418, 18 h
Procedure: as §1

[11] = test system: M. hyorhinis ATCC 23234; test: MIC against mycoplasma in vitro; type: cell-based; conditions: Mesomycoplasma hyorhinis, ATCC23234, 144 h
[12] = test system: Staph. aureus 152 (pen. sens); test: MIC against veterinary bacteria in vitro; conditions: Staphylococcus aureus, 18 h
Procedure: as §1

[13] = test system: Erysipelothrix rhusiopathiae NCTC 8163; test: MIC against veterinary bacteria in vitro; conditions: Erysipelothrix rhusiopathiae, NCTC8163, 18 h
Procedure: as §1

[14] = test system: S. typhimurium S18; test: MIC against veterinary bacteria in vitro; conditions: Salmonella enterica, TYPHIMURIUM, 18 h
Procedure: as §1

[15] = test system: M. pneumoniae ATCC 15492; test: MIC against mycoplasma in vitro; type: cell-based; conditions: Mycoplasmoides pneumoniae, ATCC15492, 144 h
[16] = test system: M. suipneumoniae HK(2); test: MIC against mycoplasma in vitro; type: cell-based; conditions: Mesomycoplasma hyopneumoniae, 144 h; M. suipneumoniae HK(2); 6 days, 37° C.; read-out: MIC
[17] = test system: Bord. bronchiseptica B08; test: MIC against veterinary bacteria in vitro; conditions: Bordetella bronchiseptica, B08, 18 h
Procedure: as §1

[18] = test system: Bord. bronchiseptica B09; test: MIC against veterinary bacteria in vitro; conditions: Bordetella bronchiseptica, B09, 18 h
Procedure: as §1

[19] = test system: Past. haemolytica PA5; test: MIC against veterinary bacteria in vitro; conditions: Mannheimia haemolytica, PA5, 18 h
Procedure: as §1

[20] = test system: E. coli E1; test: MIC against veterinary bacteria in vitro; conditions: Escherichia coli, E1, 18 h
Procedure: as §1

[21] = test system: M. suipneumoniae PW/C/210; test: MIC against mycoplasma in vitro; type: cell-based; conditions: Mesomycoplasma hyopneumoniae, 144 h
[22] = test system: Haemophilus influenzae Q1; test: MIC against human bacteria in vitro; type: cell-based; conditions: Haemophilus influenzae Q1; 5% chocolated horse blood agar, 18 hours; read-out: MIC
[23] = test system: M. suipneumoniae UCD 1; test: MIC against mycoplasma in vitro; type: cell-based; conditions: Mesomycoplasma hyopneumoniae, UCD1, 144 h; M. suipneumoniae UCD 1; 6 days, 37° C.; read-out: MIC
[24] = NCTC10418, E. coli NCTC 10418, agar with 5% chocolated horse blood, 18 hours, 37° C., read-out: MIC
[25] = 144 h, M. gallisepticum S6, 6 days, 37° C., read-out: MIC
[26] = M. hyorhinis ATCC 23234, 6 days, 37° C., read-out: MIC
[27] = M. pneumoniae ATCC 15492, 6 days, 37° C., read-out: MIC
[28] = M. suipneumoniae PW/C/210, 6 days, 37° C., read-out: MIC

`C/C(=C\c1ncc(-c2ccc(C=O)cc2)o1)C[C@@H]1OC[C@H](C[C@@H]2O[C@H]2[C@@H](C)[C@H](C)O)[C@@H](O)[C@H]1O` [Example 15, 5-p-Formylphenyl-2-(1-normon-2-yl) oxazole A] was tested, and the MIC [1] was 8 µg/mL (≈ 17 µM), the MIC [2] was 0.5 µg/mL (≈ 1.06 µM) and the MIC ([3]; S6, 144 h) was 1 µg/mL (≈ 2.12 µM). It also gave an MIC [4] of 1.25 µg/mL (≈ 2.65 µM), an MIC [5] of 0.5 µg/mL (≈ 1.06 µM) and an MIC [6] of 0.05 µg/mL (≈ 0.106 µM). It also gave an MIC [7] of 1.25 µg/mL (≈ 2.65 µM), an MIC [8, 24] of over 128 µg/mL and an MIC [9] of under 0.039 µg/mL. The MIC [10] was over 80 µg/mL, the MIC [11] was 0.25 µg/mL (≈ 0.53 µM) and the MIC [12] was 0.625 µg/mL (≈ 1.33 µM). For the same molecule, the MIC [13] was over 80 µg/mL, the MIC [14] was over 80 µg/mL and the MIC [15] was 1 µg/mL (≈ 2.12 µM). The MIC [16] was 0.5 µg/mL (≈ 1.06 µM), the MIC [17] was 80 µg/mL (≈ 170 µM) and the MIC [18] was 20 µg/mL (≈ 42.4 µM). The MIC [19] was 80 µg/mL (≈ 170 µM), the MIC [20] was over 80 µg/mL and the MIC [21] was 0.25 µg/mL (≈ 0.53 µM). The MIC [22] was 4 µg/mL (≈ 8.48 µM) and the MIC [23] was 0.5 µg/mL (≈ 1.06 µM).
`COC(=O)c1ccc(-c2cnc(/C=C(\C)C[C@@H]3OC[C@H](C[C@@H]4O[C@H]4[C@@H](C)[C@H](C)O)[C@@H](O)[C@H]3O)o2)cc1` [Example 16, 5-p-Methoxycarbonylphenyl-2-(1-normon-2-yl) oxazole A] gave an MIC [1] of 4 µg/mL (≈ 7.97 µM), an MIC [2] of 0.25 µg/mL (≈ 0.498 µM) and an MIC [3, 25] of 2.5 µg/mL (≈ 4.98 µM). The MIC [4] was 1.25 µg/mL (≈ 2.49 µM), the MIC [5] was 0.5 µg/mL (≈ 0.997 µM) and the MIC [6] was 0.05 µg/mL (≈ 0.0997 µM). For the same molecule, the MIC [7] was 1.25 µg/mL (≈ 2.49 µM), the MIC [8, 24] was over 64 µg/mL and the MIC [9] was under 0.039 µg/mL. It also gave an MIC [10] of over 80 µg/mL, an MIC [11, 26] of 0.25 µg/mL (≈ 0.498 µM) and an MIC [12] of 1.25 µg/mL (≈ 2.49 µM). The MIC [13] was 80 µg/mL (≈ 159 µM), the MIC [14] was over 80 µg/mL and the MIC [15, 27] was 1 µg/mL (≈ 1.99 µM). The MIC [16] was 0.5 µg/mL (≈ 0.997 µM), the MIC [17] was over 80 µg/mL and the MIC [18] was 40 µg/mL (≈ 79.7 µM). For the same molecule, the MIC [19] was over 80 µg/mL, the MIC [20] was over 80 µg/mL and the MIC [21, 28] was 0.25 µg/mL (≈ 0.498 µM). It also gave an MIC [22] of 2 µg/mL (≈ 3.99 µM) and an MIC [23] of 0.5 µg/mL (≈ 0.997 µM).
Molecule `C/C(=C\c1ncc(-c2ccccc2)s1)C[C@@H]1OC[C@H](C[C@@H]2O[C@H]2[C@@H](C)[C@H](C)O)[C@@H](O)[C@H]1O` [Example 29, 2-(1-Normon-2-yl)-5-phenylthiazole A] has an MIC [1] of 50 µg/mL (≈ 109 µM), an MIC [2] of 10 µg/mL (≈ 21.8 µM) and an MIC [3, 25] of over 10 µg/mL. It also gave an MIC [4] of 10 µg/mL (≈ 21.8 µM), an MIC [5] of over 10 µg/mL and an MIC [6] of 0.5 µg/mL (≈ 1.09 µM). The MIC [7] was 20 µg/mL (≈ 43.5 µM), the MIC ([8]; NCTC10418, 18 h) was over 100 µg/mL and the MIC [9] was 80 µg/mL (≈ 174 µM). The MIC [10] was over 80 µg/mL, the MIC [11, 26] was over 10 µg/mL and the MIC [12] was 10 µg/mL (≈ 21.8 µM). For the same molecule, the MIC [13] was over 80 µg/mL, the MIC [14] was over 80 µg/mL and the MIC [15, 27] was over 10 µg/mL. For the same molecule, the MIC [16] was over 10 µg/mL, the MIC [17] was over 80 µg/mL and the MIC [18] was over 80 µg/mL. For the same molecule, the MIC [19] was over 80 µg/mL, the MIC [20] was over 80 µg/mL and the MIC [21, 28] was 10 µg/mL (≈ 21.8 µM). For the same molecule, the MIC [22] was 50 µg/mL (≈ 109 µM) and the MIC [23] was over 10 µg/mL.
With `C/C(=C\c1ncc(-c2ccc([N+](=O)[O-])cc2)o1)C[C@@H]1OC[C@H](C[C@@H]2O[C@H]2[C@@H](C)[C@H](C)O)[C@@H](O)[C@H]1O` [Example 3, 5-p-nitro-phenyl-2-(1-normon-2-yl)-oxazole A] the MIC [1] was 0.5 µg/mL (≈ 1.02 µM), the MIC [2] was 0.1 µg/mL (≈ 0.205 µM) and the MIC [3, 25] was 0.5 µg/mL (≈ 1.02 µM). It also gave an MIC [4] of 0.312 µg/mL (≈ 0.639 µM), an MIC [5] of 0.25 µg/mL (≈ 0.512 µM) and an MIC [6] of 0.025 µg/mL (≈ 0.0512 µM). The MIC [7] was 0.312 µg/mL (≈ 0.639 µM), the MIC [8, 24] was over 100 µg/mL and the MIC [9] was 0.625 µg/mL (≈ 1.28 µM). For the same molecule, the MIC [10] was over 80 µg/mL, the MIC [11, 26] was 0.1 µg/mL (≈ 0.205 µM) and the MIC [12] was 0.312 µg/mL (≈ 0.639 µM). For the same molecule, the MIC [13] was over 80 µg/mL, the MIC [14] was over 80 µg/mL and the MIC [15, 27] was 0.5 µg/mL (≈ 1.02 µM). For the same molecule, the MIC [16] was 0.25 µg/mL (≈ 0.512 µM), the MIC [17] was 40 µg/mL (≈ 81.9 µM) and the MIC [18] was 5 µg/mL (≈ 10.2 µM). The MIC [19] was 10 µg/mL (≈ 20.5 µM), the MIC [20] was over 80 µg/mL and the MIC [21, 28] was 0.1 µg/mL (≈ 0.205 µM). For the same molecule, the MIC [22] was 0.1 µg/mL (≈ 0.205 µM) and the MIC [23] was 0.25 µg/mL (≈ 0.512 µM).

From patent US5041567A, “Antibacterial monic acid derivatives” (Beecham Group plc, priority 1982, dated 1991)
